# Source: patent US6204282A, “Benzimidazole compounds that are vitronectin receptor antagonists” (Schering Corporation, priority 1999, dated 2001)
# Target: αllbβ3 receptor (Homo sapiens, UniProt P05106+P08514)
# Experiment: similar competitive assay with purified αllbβ3 receptor and 125I-echistatin (specificity index versus αvβ3)
# Format: binding
# Conditions: IC50 αllbβ3 / IC50 αvβ3
# Text: The specificity index, which is a measure of the relative binding affinity for αvβ3 versus αllbβ3, may be determined by dividing the IC50 value for αllbβ3by the IC50 value for αvβ3.
# Sequence of αllbβ3 receptor (P08514 32-1039): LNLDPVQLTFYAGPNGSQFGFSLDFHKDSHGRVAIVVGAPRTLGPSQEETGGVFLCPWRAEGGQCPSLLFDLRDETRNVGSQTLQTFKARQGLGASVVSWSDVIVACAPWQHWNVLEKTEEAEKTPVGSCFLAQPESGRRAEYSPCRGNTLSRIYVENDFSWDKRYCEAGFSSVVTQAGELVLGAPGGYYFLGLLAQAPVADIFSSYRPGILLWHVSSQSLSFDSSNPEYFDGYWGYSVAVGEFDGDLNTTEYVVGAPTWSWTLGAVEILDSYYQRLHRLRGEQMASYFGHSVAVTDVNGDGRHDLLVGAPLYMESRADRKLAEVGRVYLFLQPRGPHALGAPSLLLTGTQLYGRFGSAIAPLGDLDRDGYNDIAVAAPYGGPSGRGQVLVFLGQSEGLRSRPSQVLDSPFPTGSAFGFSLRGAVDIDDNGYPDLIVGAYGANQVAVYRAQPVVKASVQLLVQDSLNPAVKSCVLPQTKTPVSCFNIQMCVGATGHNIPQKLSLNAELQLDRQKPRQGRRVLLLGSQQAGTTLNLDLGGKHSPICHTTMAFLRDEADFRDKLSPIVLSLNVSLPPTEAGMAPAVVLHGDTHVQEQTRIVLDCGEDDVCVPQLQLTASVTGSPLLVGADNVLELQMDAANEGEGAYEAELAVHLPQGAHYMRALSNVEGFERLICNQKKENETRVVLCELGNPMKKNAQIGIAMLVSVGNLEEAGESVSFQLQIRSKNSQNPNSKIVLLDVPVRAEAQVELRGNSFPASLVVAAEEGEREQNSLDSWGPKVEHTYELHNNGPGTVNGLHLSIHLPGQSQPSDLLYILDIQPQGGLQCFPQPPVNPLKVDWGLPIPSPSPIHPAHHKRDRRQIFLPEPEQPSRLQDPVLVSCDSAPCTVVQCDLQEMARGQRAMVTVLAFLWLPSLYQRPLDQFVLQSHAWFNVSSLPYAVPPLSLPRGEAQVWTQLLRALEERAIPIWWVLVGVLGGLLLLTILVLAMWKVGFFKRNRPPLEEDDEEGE
# Sequence of αllbβ3 receptor (P05106 27-788): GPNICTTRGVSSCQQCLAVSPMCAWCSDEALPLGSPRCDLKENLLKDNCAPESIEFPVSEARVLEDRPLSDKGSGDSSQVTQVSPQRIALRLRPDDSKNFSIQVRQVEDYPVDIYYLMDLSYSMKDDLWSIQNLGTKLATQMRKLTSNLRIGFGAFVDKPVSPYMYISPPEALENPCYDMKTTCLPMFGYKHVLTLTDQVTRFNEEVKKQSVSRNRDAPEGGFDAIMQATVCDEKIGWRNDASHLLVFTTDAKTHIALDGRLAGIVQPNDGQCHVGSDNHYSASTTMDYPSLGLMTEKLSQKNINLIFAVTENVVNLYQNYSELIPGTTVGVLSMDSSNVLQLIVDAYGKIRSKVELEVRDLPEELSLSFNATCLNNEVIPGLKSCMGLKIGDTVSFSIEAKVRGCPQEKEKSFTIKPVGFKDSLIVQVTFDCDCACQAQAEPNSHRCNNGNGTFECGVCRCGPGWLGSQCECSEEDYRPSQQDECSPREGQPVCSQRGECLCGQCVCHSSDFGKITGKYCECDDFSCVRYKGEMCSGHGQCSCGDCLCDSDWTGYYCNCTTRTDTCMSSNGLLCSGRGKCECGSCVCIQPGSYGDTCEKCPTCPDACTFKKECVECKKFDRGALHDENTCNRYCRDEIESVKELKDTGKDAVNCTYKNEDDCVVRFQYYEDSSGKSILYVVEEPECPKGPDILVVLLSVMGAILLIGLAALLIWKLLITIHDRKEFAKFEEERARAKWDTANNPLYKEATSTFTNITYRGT
row,SPECIFICITY αIIb β3/αvβ3 (specificity index),Structure (SMILES)
1,14,CN(C)CC(=O)N(Cc1ccc(C(=O)NC[C@H](NC(=O)OCc2ccccc2)C(=O)O)cc1)Cc1nc2ccccc2[nH]1 [Example 5-24]
2,399,O=C(N[C@@H](CNC(=O)c1ccc(CN(Cc2nc3cc(Cl)ccc3[nH]2)C(=O)NC2CCCCC2)cc1)C(=O)O)OCc1ccccc1 [Example 5-94]
3,76,CCOC(=O)CCC(=O)N(Cc1ccc(C(=O)NC[C@H](NC(=O)OCc2ccccc2)C(=O)O)cc1)Cc1nc2ccccc2[nH]1 [Example 5-17]
4,39,O=C(N[C@@H](CNC(=O)c1ccc(CN(Cc2nc3ccccc3[nH]2)C(=O)N2CCOCC2)cc1)C(=O)O)OCc1ccccc1 [Example 5-42]
5,2028,CCOC(=O)[C@H](CCSC)NC(=O)N(Cc1ccc(C(=O)NC[C@H](NC(=O)OCc2ccccc2)C(=O)O)cc1)Cc1nc2ccccc2[nH]1 [Example 5-48]
6,419,COCC(=O)N(Cc1ccc(C(=O)NC[C@H](NC(=O)OC(C)(C)C)C(=O)O)cc1)Cc1nc2ccccc2[nH]1 [Example 5-62]
7,0.2,O=C(NC(CNC(=O)c1ccc(CNCCc2nc3ccccc3[nH]2)cc1)C(=O)O)OCc1ccccc1 (centres unmarked) [Example 5-70]
8,1252,CCOC(=O)c1ccc(NC(=O)N(Cc2ccc(C(=O)NC[C@H](NC(=O)OCc3ccccc3)C(=O)O)cc2)Cc2nc3ccccc3[nH]2)cc1 [Example 5-47]
9,448,CCOC(=O)[C@H](Cc1ccccc1)NC(=O)N(Cc1ccc(C(=O)NC[C@H](NC(=O)OCc2ccccc2)C(=O)O)cc1)Cc1nc2ccccc2[nH]1 [Example 5-52]
10,413,CCOC(=O)CCNC(=O)N(Cc1ccc(C(=O)NC[C@H](NC(=O)OCc2ccccc2)C(=O)O)cc1)Cc1nc2ccccc2[nH]1 [Example 5-54]
11,1094,CCCCOC(=O)N[C@@H](CNC(=O)c1ccc(CN(Cc2nc3ccccc3[nH]2)C(=O)N[C@@H](C)C(=O)OCC)cc1)C(=O)O [Example 5-89]
12,0.3,CC(=O)N(CCc1nc2ccccc2[nH]1)Cc1ccc(C(=O)NCC(NC(=O)OCc2ccccc2)C(=O)O)cc1 (centres unmarked) [Example 5-71]
13,15,CCOC(=O)N(Cc1ccc(C(=O)NC[C@H](NC(=O)OCc2ccccc2)C(=O)O)cc1)Cc1nc2ccccc2[nH]1 [Example 5-20]
14,0.7,O=C(NC(CNC(=O)c1ccc(CN(CCc2nc3ccccc3[nH]2)C(=O)CCc2ccccc2)cc1)C(=O)O)OCc1ccccc1 (centres unmarked) [Example 5-73]
15,10.2,CC(NCc1ccc(C(=O)NC[C@H](NC(=O)OCc2ccccc2)C(=O)O)cc1)c1nc2ccccc2[nH]1 (some centres unmarked) [Example 5-75]
16,124,CC(C)NC(=O)N(Cc1ccc(C(=O)NC[C@H](NC(=O)OCc2ccccc2)C(=O)O)cc1)Cc1nc2ccccc2n1C [Example 5-93]
17,293,CC(C)(C)OC(=O)N[C@@H](CNC(=O)c1ccc(CN(Cc2nc3ccccc3[nH]2)C(=O)CCc2ccccc2)cc1)C(=O)O [Example 5-63]
18,128,CN(Cc1ccc(C(=O)NC[C@H](NC(=O)OCc2ccccc2)C(=O)O)cc1)Cc1nc2ccccc2[nH]1 [Example 5-33]
19,1689,CCCCOC(=O)N[C@@H](CNC(=O)c1ccc(CN(Cc2nc3ccccc3[nH]2)C(=O)Nc2ccccc2)cc1)C(=O)O [Example 5-83]
20,12.4,COCC(=O)N(Cc1ccc(C(=O)NC[C@H](NC(=O)OCc2ccccc2)C(=O)O)cc1)C(C)c1nc2ccccc2[nH]1 (some centres unmarked) [Example 5-77]
21,0.5,COCC(=O)N(CCc1nc2ccccc2[nH]1)Cc1ccc(C(=O)NCC(NC(=O)OCc2ccccc2)C(=O)O)cc1 (centres unmarked) [Example 5-72]
22,1569,CCCCOC(=O)N[C@@H](CNC(=O)c1ccc(CN(Cc2nc3ccccc3[nH]2)C(=O)N[C@@H](CCSC)C(=O)OCC)cc1)C(=O)O [Example 5-87]
23,324,CC(=O)N(Cc1ccc(C(=O)NC[C@H](NC(=O)OC(C)(C)C)C(=O)O)cc1)Cc1nc2ccccc2[nH]1 [Example 5-61]
24,805,CCOC(=O)[C@H](C)NC(=O)N(Cc1ccc(C(=O)NC[C@H](NC(=O)OCc2ccccc2)C(=O)O)cc1)Cc1nc2ccccc2[nH]1 [Example 5-50]
25,0.4,O=C(O)CC(NC(=O)c1ccc(CN(Cc2nc3ccccc3[nH]2)C(=O)CCC2CCCC2)cc1)c1ccccc1 (centres unmarked) [Example 5-69]
26,1.43,O=C(N[C@H](CNC(=O)c1ccc(CNCc2nc3ccccc3[nH]2)cc1)C(=O)O)OCc1ccccc1 [Example 5-57]

row,SPECIFICITY αIIb β3/αvβ3 (specificity index),Structure (SMILES)
1,499,CC(C)(C)OC(=O)N[C@@H](CNC(=O)c1ccc(CN(Cc2nc3ccccc3[nH]2)C(=O)CCC2CCCC2)cc1)C(=O)O [Example 5-64]
2,90,CC(C)(C)OC(=O)N[C@@H](CNC(=O)c1ccc(CNCc2nc3ccccc3[nH]2)cc1)C(=O)O [Example 5-60]
3,1333,"CCOC(=O)CNC(=O)N(Cc1ccc(C(=O)NC[C@H](NC(=O)OCc2ccccc2)C(=O)O)cc1)Cc1nc2ccccc2[nH]1 [Example 5-45, N^3-[4-[(benzimidazol-2-yl)methyl][[(ethoxycarbonylmethyl)amino]-carbonyl]aminomethylbenzoyl]-N^2 -Cbz-L-2,3-diaminopropionic acid]"
4,240,O=C(N[C@@H](CNC(=O)c1ccc(CN(Cc2nc3ccccc3[nH]2)C(=O)Nc2ccc(Cl)cc2)cc1)C(=O)O)OCc1ccccc1 [Example 5-35]
5,288,O=C(N[C@@H](CNC(=O)c1ccc(CN(Cc2nc3ccccc3[nH]2)C(=O)NC23CC4CC(CC(C4)C2)C3)cc1)C(=O)O)OCc1ccccc1 [Example 5-40]
6,151,CCOc1ccc(NC(=O)N(Cc2ccc(C(=O)NC[C@H](NC(=O)OCc3ccccc3)C(=O)O)cc2)Cc2nc3ccccc3[nH]2)cc1 [Example 5-32]
7,19.0,CC(c1nc2ccccc2[nH]1)N(Cc1ccc(C(=O)NC[C@H](NC(=O)OCc2ccccc2)C(=O)O)cc1)C(=O)CCC1CCCC1 (some centres unmarked) [Example 5-79]
8,174,Cn1c(CN(Cc2ccc(C(=O)NC[C@H](NC(=O)OCc3ccccc3)C(=O)O)cc2)C(=O)NC2CCCCC2)nc2ccccc21 [Example 5-92]
9,0.6,O=C(NC(CNC(=O)c1ccc(CN(CCc2nc3ccccc3[nH]2)C(=O)CCC2CCCC2)cc1)C(=O)O)OCc1ccccc1 (centres unmarked) [Example 5-74]
10,481,O=C(N[C@@H](CNC(=O)c1ccc(CN(Cc2nc3ccccc3[nH]2)C(=O)Nc2ccccc2)cc1)C(=O)O)OCc1ccccc1 [Example 5-27]
11,504,O=C(N[C@@H](CNC(=O)c1ccc(CN(Cc2nc3ccccc3[nH]2)C(=O)Nc2ccc(F)cc2)cc1)C(=O)O)OCc1ccccc1 [Example 5-49]
12,1259,CCCCOC(=O)N[C@@H](CNC(=O)c1ccc(CN(Cc2nc3ccccc3[nH]2)C(=O)NC2CCCCC2)cc1)C(=O)O [Example 5-82]
13,144,O=C(N[C@@H](CNC(=O)c1ccc(CN(Cc2nc3ccccc3[nH]2)C(=O)NCc2ccccc2)cc1)C(=O)O)OCc1ccccc1 [Example 5-29]
14,775,CC(C)NC(=O)N(Cc1ccc(C(=O)NC[C@H](NC(=O)OCc2ccccc2)C(=O)O)cc1)Cc1nc2cc(Cl)ccc2[nH]1 [Example 5-95]
15,65,O=C(N[C@H](CNC(=O)c1ccc(CN(Cc2nc3ccccc3[nH]2)C(=O)CCc2ccccc2)cc1)C(=O)O)OCc1ccccc1 [Example 5-59]
16,0.4,CC(=O)N(Cc1ccc(C(=O)NC(CC(=O)O)c2ccccc2)cc1)Cc1nc2ccccc2[nH]1 (centres unmarked) [Example 5-66]
17,38,CC(C)C(=O)N(Cc1ccc(C(=O)NC[C@H](NC(=O)OCc2ccccc2)C(=O)O)cc1)Cc1nc2ccccc2[nH]1 [Example 5-13]
18,0.5,COCC(=O)N(Cc1ccc(C(=O)NC(CC(=O)O)c2ccccc2)cc1)Cc1nc2ccccc2[nH]1 (centres unmarked) [Example 5-67]
19,585,CCNC(=O)N(Cc1ccc(C(=O)NC[C@H](NC(=O)OCc2ccccc2)C(=O)O)cc1)Cc1nc2ccccc2[nH]1 [Example 5-43]
20,82,CC(=O)OC(C(=O)N(Cc1ccc(C(=O)NC[C@H](NC(=O)OCc2ccccc2)C(=O)O)cc1)Cc1nc2ccccc2[nH]1)c1ccccc1 (some centres unmarked) [Example 5-18]
21,1065,COc1ccc(NC(=S)N(Cc2ccc(C(=O)NC[C@H](NC(=O)OCc3ccccc3)C(=O)O)cc2)Cc2nc3ccccc3[nH]2)cc1 [Example 5-46]
22,33.9,CC(c1nc2ccccc2[nH]1)N(Cc1ccc(C(=O)NC[C@H](NC(=O)OCc2ccccc2)C(=O)O)cc1)C(=O)CCc1ccccc1 (some centres unmarked) [Example 5-78]
23,80,O=C(N[C@@H](CNC(=O)c1ccc(CN(Cc2nc3ccccc3[nH]2)C(=S)NCCc2ccccc2)cc1)C(=O)O)OCc1ccccc1 [Example 5-31]
24,483,CCOC(=O)[C@H](CC(C)C)NC(=O)N(Cc1ccc(C(=O)NC[C@H](NC(=O)OCc2ccccc2)C(=O)O)cc1)Cc1nc2ccccc2[nH]1 [Example 5-53]
25,22,CSCC(=O)N(Cc1ccc(C(=O)NC[C@H](NC(=O)OCc2ccccc2)C(=O)O)cc1)Cc1nc2ccccc2[nH]1 [Example 5-23]
26,514,COCCNC(=S)N(Cc1ccc(C(=O)NC[C@H](NC(=O)OCc2ccccc2)C(=O)O)cc1)Cc1nc2ccccc2[nH]1 [Example 5-56]

row,Structure (SMILES),SPECIFICITY αIIb β3/αvβ3 (specificity index)
1,COc1ccc(OC(=O)N(Cc2ccc(C(=O)NC[C@H](NC(=O)OCc3ccccc3)C(=O)O)cc2)Cc2nc3ccccc3[nH]2)cc1 [Example 5-21],41
